Assay results as given in patent US5053070A, “Pyrimidine derivatives, preparation processes thereof, herbicide containing the same, and herbicidal compositions containing the same along with other active ingredient” (Mitsui Toatsu Chemicals, Incorporated, priority 1988, dated 1991).
Converted amounts (≈) assume the structure as drawn.

What was measured:
[1] = system: ALS (acetolactate syntase); assay: ALS enzyme assay (Test 1); assay type: biochemical, pea; conditions: 1,000 ppm (0.5 mg/0.5 ml)
Protocol: (§1) To determine the selectivity in enzyme level between crops and weeds, and ALS enzyme assay was conducted using pea as a representative of broadleaf crops and barnyardgrass as a representative of narrowleaf weeds.
(§2) After seeds of pea and barnyardgrass were allowed to germinate at 25° C. for 8-14 days in a dark place, partially-purified suspensions (Suspensions A) of acetolactate syntase were separately obtained from seedlings in accordance with the method described in the literature, Plant Physiology, 75, 827-831.
(§3) In a test tube, 0.5 mg of one of test compounds was weighed, followed by the addition of 0.15 ml of a 20 mM K2 HPO4 solution and 0.25 ml of a reaction substrate medium which consisted of 40 mM of K2 HPO4, 40 mM of sodium pyruvate, 1 mM of TPP, 1 mM of MgCl2 and 20 μM of FAD so that 0.4 ml of a reaction solution (Solution B) was prepared. Added to 0.4 ml of Solution B was 0.1 ml of suspension A. After the resultant mixture was shaken for 1 hour in a thermostat water bath controlled at 30° C., 50 μl of 6N sulfuric acid were added to terminate the reaction.
(§4) Next, the reaction-terminated liquid mixture was transferred into a thermostat water bath controlled at 60° C. and was heated for 15 minutes. Thereafter, 0.5 ml of a 0.5% creatine solution and 0.5 ml of a 5% alkaline α-naphthol solution were added, and the resultant mixture was maintained at 60° C. for 15 minutes. As a result, the test solution developed a pink-red color. After the above operation, the absorbance of the test solution at 525 nm was measured by a spectrophotometer (Absorbance 1 of Test Compound).
(§5) On the other hand, the absorbance (Absorbance 2 of Blank) of a solution obtained by subjecting a portion of Solution B, said portion being free of the test compound, to the above operation and the absorbance (Absorbance 3 of sulfuric acid terminated) of another solution obtained by subjecting another portion of Solution B, said portion containing 50 μl of 6N sulfuric acid as a test compound, were measured at the same time. Based on the values of the respective measurements, the enzyme assay at 1,000 ppm (0.5 mg/0.5 ml) of each compound was determined. [formula]

bulrush = assay: Treatment of soil under submerged condition, pre-emergence (Test 4); assay type: in vivo; conditions: 30 g ai/a granule, 30 days later
Protocol: (§6) 1/5000-are Wagner pots were filled with soil. Seeds or tubers of barnyardgrass, Monochoria vaginalis, bulrush, Sagittaria pygmaea, Cyperus seroylnus and Eleocharis kuroguwai were seeded or planted under submerged condition. Two pairs of rice seedlings (2-3 leaf stage), which had been reared in advance, were transplanted to each pot and were allowed to germinate in a green house. Each pair consisted of two rice seedlings. One day later (before emergence of weeds), each pot was treated with a granule which had been prepared by processing a predetermined amount of the test composition in accordance with a similar method to the method described in Formulation Example 9. The state of emergence of weeds and the state of injury of rice were observed 30 days later.
(§7) In the table, the degrees of damages of the test plants and the degrees of injury of rice are shown in a similar manner to Example 2.

Sagittaria pygmaea = assay: as above; assay type: in vivo; conditions: 30 g ai/a granule, 30 days later
Protocol: as §6, §7

barnyardgrass [2] = assay: as above; assay type: in vivo; conditions: 30 g ai/a granule, 30 days later
Protocol: as §6, §7

cotton = assay: Upland soil application test (Test 2), crop injury; assay type: in vivo; conditions: 30 g ai/a, soil spray before emergence, 30 days later
Protocol: (§8) Resin-made 1/2500-are pots were filled with the soil of an upland field. After they were fertilized, soybean, peanut and cotton were seeded and 2-3 cm soil covering was applied. Seeds of redroot pigweed, common lambsquarters, barnyardgrass, green foxtail, large crabgrass, foxtail meadow and johnsongrass had been uniformly mixed with the soil. They were allowed to germinate in a green house. One day later (before emergence of weeds), a wettable powder prepared from a predetermined amount of each test compound in a similar manner to the method described in Formulation Example 1 was diluted with water and then sprayed evenly at an application rate equal to 10 l per are onto the surface of the soil by means of a pressure-operated ULV (ultra low volume) sprayer. Influence to the crops and weeds were observed 30 days later. The results are shown in Table 3, in which the degree of damages of each test plant and the degree of injury to each crop were determined by comparing the air-dried weights of the test plant and crop with those of the corresponding plant and crop in untreated pots and are shown in accordance with the following standard: […]

soybean = assay: Upland soil application test (Test 2), crop injury; assay type: in vivo; conditions: 30 g ai/a, soil spray before emergence, 30 days later
Protocol: as §8

peanut = assay: Upland soil application test (Test 2), crop injury; assay type: in vivo; conditions: 30 g ai/a, soil spray before emergence, 30 days later
Protocol: as §8

narrowleaf waterplantain = assay: Petri dish test (Test 6); assay type: in vivo; conditions: 336 h; seeds on filter paper, 25° C., 14 days; read-out: I80 (ppm)
Protocol: A filter paper was placed in each glass-made Petri dish having a diameter of 9 cm. A compound dissolved in acetone was added in a predetermined amount. The filter paper was then dried in air to remove acetone. Seeds of narrowleaf waterplantain were placed on the filter paper and 10 ml of water were poured into the Petri dish. The seeds were allowed to grow at 25° C. in a bright room. Fourteen days later, the state of growth of narrowleaf water-plantain was observed.
In the table, the degree of damages of the test plant was determined by comparing the state of growth of the plant with that of the plant in an untreated group and is shown in accordance with the following standard: […]

foxtail meadow = assay: Upland foliar application test (Test 3); assay type: in vivo; conditions: 30 g ai/a, foliar spray at 2-3 leaves, 30th day
Protocol: (§9) Resin-made 1/10000-are pots were filled with the soil of an upland field. Redroot pigweed, common lambsquarters, foxtail meadow, johnsongrass, barnyardgrass, green foxtail, large crabgrass, soybean, peanut and cotton were separately seeded and were allowed to germinate in a green house. When each plant grew to the stage of 2-3 leaves, an emulsion formulated from a predetermined amount of each test compound in a similar manner to the method described in Formulation Example 11 was diluted with water to a predetermined dilution rate and then sprayed at an application rate equal to 5 l per are onto the foliage of each plant by means of a pressure-operated ULV (ultra low volume) sprayer. Influence to the crops and weeds were observed on the 30th day after the spray of the herbicides. The results are shown in Table 4 in which the degree of damages of each test plant and the degree of injury to each crop are shown in a similar manner to Test 2.

green foxtail = assay: Upland foliar application test (Test 3); assay type: in vivo; conditions: 30 g ai/a, foliar spray at 2-3 leaves, 30th day
Protocol: as §9

common lambsquarters = assay: Upland foliar application test (Test 3); assay type: in vivo; conditions: 30 g ai/a, foliar spray at 2-3 leaves, 30th day
Protocol: as §9

large crabgrass = assay: Upland foliar application test (Test 3); assay type: in vivo; conditions: 30 g ai/a, foliar spray at 2-3 leaves, 30th day
Protocol: as §9

redroot pigweed = assay: Upland foliar application test (Test 3); assay type: in vivo; conditions: 30 g ai/a, foliar spray at 2-3 leaves, 30th day
Protocol: as §9

johnsongrass = assay: Upland foliar application test (Test 3); assay type: in vivo; conditions: 30 g ai/a, foliar spray at 2-3 leaves, 30th day
Protocol: as §9

barnyardgrass [3] = assay: Upland foliar application test (Test 3); assay type: in vivo; conditions: 30 g ai/a, foliar spray at 2-3 leaves, 30th day
Protocol: as §9

[4] = system: ALS (acetolactate syntase); assay: ALS enzyme assay (Test 1); assay type: biochemical, barnyardgrass; conditions: 1,000 ppm (0.5 mg/0.5 ml)
Protocol: as §1, §2, §3, §4, §5

## COc1cc(OC)nc(Oc2ccccc2C=NOCC=Cc2cccc(Cl)c2)n1 [Compound No. 26, 0-(3-chlorocinnamyl)-2-(4,6-dimethoxy-2-pyrimidinyloxy)benzaldxime]
[1]
  Inhibitory activity (%) Pea: 8%
bulrush
  Herbicidal effects Bulrush: 4 (6-10 (Severe damages))
Sagittaria pygmaea
  Herbicidal effects Sagittaria Pygmaea: 5 (0-5 (Death))
Barnyardgrass [2]
  Herbicidal effects Barnyardgrass: 4 (6-10 (Severe damages))
cotton
  Injury Cotton: 0 (91-100 (No damages))
soybean
  Injury Soybean: 0 (91-100 (No damages))
peanut
  Injury Peanut: 0 (91-100 (No damages))
Narrowleaf waterplantain
  IC80: 2 µg/mL (≈ 4.7 µM)
Foxtail meadow
  Herbicidal effects Foxtail meadow: 4 (6-10 (Severe damages))
Green foxtail
  Herbicidal effects Green foxtail: 5 (0-5 (Death))
Common lambsquarters
  Herbicidal effects Common lambsquarters: 4 (6-10 (Severe damages))
Large crabgrass
  Herbicidal effects Large crabgrass: 5 (0-5 (Death))
Redroot pigweed
  Herbicidal effects Redroot pigweed: 4 (6-10 (Severe damages))
johnsongrass
  Herbicidal effects Johnsongrass: 5 (0-5 (Death))
Barnyardgrass [3]
  Herbicidal effects Barnyardgrass: 5 (0-5 (Death))
[4]
  Inhibitory activity (%) Barnyardgrass: 89%

## COc1cc(OC)nc(Oc2ccccc2C=NOCC=Cc2ccccc2C(F)(F)F)n1 [compound 32]
[1]
  Inhibitory activity (%) Pea: 0%
bulrush
  Herbicidal effects Bulrush: 4 (6-10 (Severe damages))
Sagittaria pygmaea
  Herbicidal effects Sagittaria Pygmaea: 5 (0-5 (Death))
Barnyardgrass [2]
  Herbicidal effects Barnyardgrass: 5 (0-5 (Death))
cotton
  Injury Cotton: 0 (91-100 (No damages))
soybean
  Injury Soybean: 0 (91-100 (No damages))
peanut
  Injury Peanut: 0 (91-100 (No damages))
Narrowleaf waterplantain
  IC80: 4 µg/mL (≈ 8.71 µM)
Foxtail meadow
  Herbicidal effects Foxtail meadow: 5 (0-5 (Death))
Green foxtail
  Herbicidal effects Green foxtail: 5 (0-5 (Death))
Common lambsquarters
  Herbicidal effects Common lambsquarters: 4 (6-10 (Severe damages))
Large crabgrass
  Herbicidal effects Large crabgrass: 5 (0-5 (Death))
Redroot pigweed
  Herbicidal effects Redroot pigweed: 5 (0-5 (Death))
johnsongrass
  Herbicidal effects Johnsongrass: 5 (0-5 (Death))
Barnyardgrass [3]
  Herbicidal effects Barnyardgrass: 5 (0-5 (Death))
[4]
  Inhibitory activity (%) Barnyardgrass: 91%

## COc1cc(OC)nc(Oc2ccccc2C=NOC(C)C)n1 [compound 6]
[1]
  Inhibitory activity (%) Pea: 0%
bulrush
  Herbicidal effects Bulrush: 4 (6-10 (Severe damages))
Sagittaria pygmaea
  Herbicidal effects Sagittaria Pygmaea: 4 (6-10 (Severe damages))
Barnyardgrass [2]
  Herbicidal effects Barnyardgrass: 4 (6-10 (Severe damages))
cotton
  Injury Cotton: 0 (91-100 (No damages))
soybean
  Injury Soybean: 0 (91-100 (No damages))
peanut
  Injury Peanut: 0 (91-100 (No damages))
Narrowleaf waterplantain
  IC80: 40 µg/mL (≈ 126 µM)
Foxtail meadow
  Herbicidal effects Foxtail meadow: 5 (0-5 (Death))
Green foxtail
  Herbicidal effects Green foxtail: 5 (0-5 (Death))
Common lambsquarters
  Herbicidal effects Common lambsquarters: 4 (6-10 (Severe damages))
Large crabgrass
  Herbicidal effects Large crabgrass: 3 (11-40 (Medium damages))
Redroot pigweed
  Herbicidal effects Redroot pigweed: 4 (6-10 (Severe damages))
johnsongrass
  Herbicidal effects Johnsongrass: 5 (0-5 (Death))
Barnyardgrass [3]
  Herbicidal effects Barnyardgrass: 4 (6-10 (Severe damages))
[4]
  Inhibitory activity (%) Barnyardgrass: 17%

## COc1cc(OC)nc(Oc2ccccc2C=NOCC=Cc2ccc(C(F)(F)F)cc2)n1 [compound 35]
[1]
  Inhibitory activity (%) Pea: 10%
bulrush
  Herbicidal effects Bulrush: 3 (11-40 (Medium damages))
Sagittaria pygmaea
  Herbicidal effects Sagittaria Pygmaea: 5 (0-5 (Death))
Barnyardgrass [2]
  Herbicidal effects Barnyardgrass: 4 (6-10 (Severe damages))
cotton
  Injury Cotton: 0 (91-100 (No damages))
soybean
  Injury Soybean: 0 (91-100 (No damages))
peanut
  Injury Peanut: 0 (91-100 (No damages))
Narrowleaf waterplantain
  IC80: 6 µg/mL (≈ 13.1 µM)
Foxtail meadow
  Herbicidal effects Foxtail meadow: 5 (0-5 (Death))
Green foxtail
  Herbicidal effects Green foxtail: 5 (0-5 (Death))
Common lambsquarters
  Herbicidal effects Common lambsquarters: 4 (6-10 (Severe damages))
Large crabgrass
  Herbicidal effects Large crabgrass: 5 (0-5 (Death))
Redroot pigweed
  Herbicidal effects Redroot pigweed: 4 (6-10 (Severe damages))
johnsongrass
  Herbicidal effects Johnsongrass: 5 (0-5 (Death))
Barnyardgrass [3]
  Herbicidal effects Barnyardgrass: 5 (0-5 (Death))
[4]
  Inhibitory activity (%) Barnyardgrass: 89%

## COc1cc(OC)nc(Oc2ccccc2C=NO)n1 [Compound No. 24, 2-(4,6-dimethoxy-2-pyrimidinyloxy)-benzaloxime]
[1]
  Inhibitory activity (%) Pea: 0%
bulrush
  Herbicidal effects Bulrush: 2 (41-70 (Small damages))
Sagittaria pygmaea
  Herbicidal effects Sagittaria Pygmaea: 4 (6-10 (Severe damages))
Barnyardgrass [2]
  Herbicidal effects Barnyardgrass: 3 (11-40 (Medium damages))
cotton
  Injury Cotton: 0 (91-100 (No damages))
soybean
  Injury Soybean: 0 (91-100 (No damages))
peanut
  Injury Peanut: 0 (91-100 (No damages))
Narrowleaf waterplantain
  IC80: 100 µg/mL (≈ 363 µM)
Foxtail meadow
  Herbicidal effects Foxtail meadow: 4 (6-10 (Severe damages))
Green foxtail
  Herbicidal effects Green foxtail: 4 (6-10 (Severe damages))
Common lambsquarters
  Herbicidal effects Common lambsquarters: 3 (11-40 (Medium damages))
Large crabgrass
  Herbicidal effects Large crabgrass: 4 (6-10 (Severe damages))
Redroot pigweed
  Herbicidal effects Redroot pigweed: 3 (11-40 (Medium damages))
johnsongrass
  Herbicidal effects Johnsongrass: 5 (0-5 (Death))
Barnyardgrass [3]
  Herbicidal effects Barnyardgrass: 4 (6-10 (Severe damages))
[4]
  Inhibitory activity (%) Barnyardgrass: 36%
